Test results as given in US11542259B2, “Compounds for the treatment of kinase-dependent disorders” (Exelixis, Inc., priority 2018, dated 2023).

How the values were obtained:
[1] = biological target: Human Axl (residues H473-A894 with Q764R) (Homo sapiens (Human), UniProt P30530, Q764R); test: Human AXL kinase assay (33P radiometric, KinaseProfiler); type: biochemical; conditions: 10 μM ATP
[2] = biological target: Human Mer (residues R557-E882 with H628Q and R794A) (Homo sapiens (Human), UniProt Q12866); test: Human Mer kinase assay (33P radiometric, KinaseProfiler); type: biochemical; conditions: 10 μM ATP
[3] = biological target: Human Met (residues R974-S1390 with A1209G and V1290L) (Homo sapiens, UniProt P08581); test: Human Met kinase assay (33P radiometric, KinaseProfiler); type: biochemical; conditions: 10 μM ATP, read-out: c-Met IC50
[4] = biological target: Met (Homo sapiens (Human), UniProt P08581); test: Met autophosphorylation ELISA in PC-3 cells; type: cell-based; conditions: cellular, HGF stimulated, read-out: c-Met IC50
How it was run: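 Phospho-Met (panTyr) sandwich ELISA on lysates of PC-3 cells given 100 ng/mL HGF for 10 min after 1 h compound exposure (8-point curve, 0.3% DMSO) following 3 h serum starvation. Normalised to HGF-stimulated DMSO and reference-inhibitor wells; 4-parameter logistic IC50.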

Sequence of Human Mer (residues R557-E882 with H628Q and R794A) (Q12866 557-882, stated change not applied): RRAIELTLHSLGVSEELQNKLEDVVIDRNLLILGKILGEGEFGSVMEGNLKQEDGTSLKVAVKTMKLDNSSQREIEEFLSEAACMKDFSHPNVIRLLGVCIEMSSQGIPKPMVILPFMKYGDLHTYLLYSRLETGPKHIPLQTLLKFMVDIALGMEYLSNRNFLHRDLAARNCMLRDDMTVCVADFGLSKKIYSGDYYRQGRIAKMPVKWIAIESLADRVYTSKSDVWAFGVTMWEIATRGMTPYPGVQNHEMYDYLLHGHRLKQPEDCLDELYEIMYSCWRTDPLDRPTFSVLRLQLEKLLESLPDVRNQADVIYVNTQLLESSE
Sequence of Met (P08581 25-1390): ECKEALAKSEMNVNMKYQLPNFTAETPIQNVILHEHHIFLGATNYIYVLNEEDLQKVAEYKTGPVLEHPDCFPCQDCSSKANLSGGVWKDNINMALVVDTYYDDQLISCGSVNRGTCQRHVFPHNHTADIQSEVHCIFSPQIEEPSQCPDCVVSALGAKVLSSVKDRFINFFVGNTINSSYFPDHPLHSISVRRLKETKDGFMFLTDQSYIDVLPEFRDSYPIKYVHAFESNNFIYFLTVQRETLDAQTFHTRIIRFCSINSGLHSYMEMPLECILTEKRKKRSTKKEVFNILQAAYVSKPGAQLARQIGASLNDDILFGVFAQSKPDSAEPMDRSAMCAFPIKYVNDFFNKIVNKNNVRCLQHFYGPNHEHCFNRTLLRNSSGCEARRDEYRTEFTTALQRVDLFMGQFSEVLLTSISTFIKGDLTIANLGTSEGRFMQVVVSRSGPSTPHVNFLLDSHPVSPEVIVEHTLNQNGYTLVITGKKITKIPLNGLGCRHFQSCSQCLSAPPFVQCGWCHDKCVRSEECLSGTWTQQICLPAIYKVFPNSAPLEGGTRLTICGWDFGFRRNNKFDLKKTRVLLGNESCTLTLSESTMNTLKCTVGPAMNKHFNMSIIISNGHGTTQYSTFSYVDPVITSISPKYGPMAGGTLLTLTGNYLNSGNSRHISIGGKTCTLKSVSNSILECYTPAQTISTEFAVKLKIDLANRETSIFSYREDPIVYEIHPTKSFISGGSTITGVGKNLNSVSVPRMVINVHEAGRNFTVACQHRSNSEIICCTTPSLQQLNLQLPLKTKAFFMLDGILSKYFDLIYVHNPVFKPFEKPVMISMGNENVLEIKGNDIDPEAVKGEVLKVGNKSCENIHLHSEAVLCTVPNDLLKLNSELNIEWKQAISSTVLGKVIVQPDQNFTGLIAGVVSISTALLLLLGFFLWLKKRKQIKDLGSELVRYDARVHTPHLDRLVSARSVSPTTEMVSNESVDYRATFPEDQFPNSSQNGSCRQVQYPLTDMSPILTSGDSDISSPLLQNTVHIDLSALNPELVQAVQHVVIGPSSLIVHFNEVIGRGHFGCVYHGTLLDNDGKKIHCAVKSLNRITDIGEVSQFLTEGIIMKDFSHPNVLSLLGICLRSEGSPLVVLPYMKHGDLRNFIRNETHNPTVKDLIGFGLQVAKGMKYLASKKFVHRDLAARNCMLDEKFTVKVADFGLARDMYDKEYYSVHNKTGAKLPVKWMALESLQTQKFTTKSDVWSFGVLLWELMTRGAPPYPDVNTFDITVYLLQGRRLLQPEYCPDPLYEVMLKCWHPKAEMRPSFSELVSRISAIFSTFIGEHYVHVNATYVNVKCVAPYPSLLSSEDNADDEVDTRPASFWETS
Sequence of Human Axl (residues H473-A894 with Q764R) (P30530 473-894 Q764R): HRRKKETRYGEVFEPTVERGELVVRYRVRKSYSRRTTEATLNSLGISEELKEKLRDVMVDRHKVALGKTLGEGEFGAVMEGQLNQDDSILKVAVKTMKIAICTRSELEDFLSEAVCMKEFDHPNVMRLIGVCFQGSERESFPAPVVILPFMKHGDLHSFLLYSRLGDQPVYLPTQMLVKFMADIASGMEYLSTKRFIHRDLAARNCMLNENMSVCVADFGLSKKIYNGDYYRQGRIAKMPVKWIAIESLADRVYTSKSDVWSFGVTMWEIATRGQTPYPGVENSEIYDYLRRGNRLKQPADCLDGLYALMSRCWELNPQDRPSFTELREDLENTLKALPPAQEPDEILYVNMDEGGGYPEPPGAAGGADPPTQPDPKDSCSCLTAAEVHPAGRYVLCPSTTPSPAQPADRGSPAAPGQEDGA

IC50 [1] [nM]	IC50 [2] [nM]	IC50 [3] [nM]	IC50 [4] [nM]	Compound
≤ 10	≤ 10	≤ 10	≤ 10	COc1cc2nccc(Oc3ccc(NC(=O)C4(C(=O)Nc5ccc(F)cc5)CC4)cc3Cl)c2cc1C(N)=O [Compound 132, 1-N′-[4-(6-carbamoyl-7-methoxyquinolin-4-yl)oxy-3-chlorophenyl]-1-N-(4-fluorophenyl)cyclopropane-1,1-dicarboxamide]
≤ 10	≤ 10	≤ 10	10 to 100	Cc1cc2c(Oc3ccc(NC(=O)C4(C(=O)Nc5ccc(F)cc5)CC4)cc3)ccnc2cc1C(N)=O [Compound 142, 1-N-[4-(7-carbamoyl-6-methylquinolin-4-yl)oxyphenyl]-1-N′-(4-fluorophenyl)cyclopropane-1,1-dicarboxamide]
≤ 10	≤ 10	10 to 100	10 to 100	COc1cc2nccc(Oc3ccc(NC(=O)C4(C(=O)Nc5ccc(F)cc5)CC4)cc3)c2cc1C1CC1 [Compound 187, 1-N-[4-(6-cyclopropyl-7-methoxyquinolin-4-yl)oxyphenyl]-1-N′-(4-fluorophenyl)cyclopropane-1,1-dicarboxamide]
10 to 100	≤ 10	≤ 10	10 to 100	COc1cc2nccc(Oc3ccc(NC(=O)C4(C(=O)Nc5ccc(F)cc5)CC4)cc3)c2cc1-c1ccc[nH]1 [Compound 188, 1-N′-(4-fluorophenyl)-1-N-[4-[7-methoxy-6-(1H-pyrrol-2-yl)quinolin-4-yl]oxyphenyl]cyclopropane-1,1-dicarboxamide]
≤ 10	≤ 10	≤ 10	10 to 100	COC(=O)c1cc2c(Oc3ccc(NC(=O)C4(C(=O)Nc5ccc(F)cc5)CC4)cc3Cl)ccnc2cc1OC [Compound 128, methyl 4-[2-chloro-4-[[1-[(4-fluorophenyl)carbamoyl]cyclopropanecarbonyl]amino]phenoxy]-7-methoxyquinoline-6-carboxylate]
10 to 100	≤ 10	≤ 10	10 to 100	COc1cc2nccc(Oc3ccc(NC(=O)C4(C(=O)Nc5ccc(F)cc5)CC4)cc3)c2cc1-c1cnoc1 [Compound 183, 1-N′-(4-fluorophenyl)-1-N-[4-[7-methoxy-6-(1,2-oxazol-4-yl)quinolin-4-yl]oxyphenyl]cyclopropane-1,1-dicarboxamide]
10 to 100	≤ 10	≤ 10	10 to 100	COC(=O)c1cc2nccc(Oc3ccc(NC(=O)C4(C(=O)Nc5ccc(F)cc5)CC4)cc3)c2cc1OC [Compound 150, methyl 4-[4-[[1-[(4-fluorophenyl)carbamoyl]cyclopropanecarbonyl]amino]phenoxy]-6-methoxyquinoline-7-carboxylate]
10 to 100	≤ 10	10 to 100	100 to 300	CNC(=O)c1cc2nccc(Oc3ccc(NC(=O)C4(C(=O)Nc5ccc(F)cc5)CC4)cc3)c2cc1OC [Compound 153, 1-N′-(4-fluorophenyl)-1-N-[4-[6-methoxy-7-(methylcarbamoyl)quinolin-4-yl]oxyphenyl]cyclopropane-1,1-dicarboxamide]
≤ 10	≤ 10	≤ 10	≤ 10	COc1cc2nccc(Oc3ccc(NC(=O)C4(C(=O)Nc5ccc(F)cc5)CC4)cc3)c2cc1S(N)(=O)=O [Compound 206, 1-N′-(4-Fluorophenyl)-1-N-[4-(7-methoxy-6-sulfamoylquinolin-4-yl)oxyphenyl]cyclopropane-1,1-dicarboxamide]
≤ 10	≤ 10	≤ 10	≤ 10	CNC(=O)c1cc2c(Oc3ccc(NC(=O)C4(C(=O)Nc5ccc(F)cc5)CC4)cc3Cl)ccnc2cc1OC [Compound 134, 1-N′-[3-chloro-4-[7-methoxy-6-(methylcarbamoyl)quinolin-4-yl]oxyphenyl]-1-N-(4-fluorophenyl)cyclopropane-1,1-dicarboxamide]
≤ 10	≤ 10	10 to 100	10 to 100	COc1cc2nccc(Oc3ccc(NC(=O)C4(C(=O)Nc5ccc(F)cc5)CC4)cc3)c2cc1-c1ccccn1 [Compound 176, 1-N′-(4-fluorophenyl)-1-N-[4-(7-methoxy-6-pyridin-2-ylquinolin-4-yl)oxyphenyl]cyclopropane-1,1-dicarboxamide]
10 to 100	≤ 10	≤ 10	100 to 300	COc1cc2nccc(Oc3ccc(NC(=O)C4(C(=O)Nc5ccc(F)cc5)CC4)cc3)c2cc1C1(O)CNC1 [Compound 197, 1-N′-(4-fluorophenyl)-1-N-[4-[6-(3-hydroxyazetidin-3-yl)-7-methoxyquinolin-4-yl]oxyphenyl]cyclopropane-1,1-dicarboxamide]
10 to 100	≤ 10	10 to 100	10 to 100	COc1cc2nccc(Oc3ccc(NC(=O)C4(C(=O)Nc5ccc(F)cc5)CC4)cc3)c2cc1N1CCC1 [Compound 198, 1-N-[4-[6-(azetidin-1-yl)-7-methoxyquinolin-4-yl]oxyphenyl]-1-N′-(4-fluorophenyl)cyclopropane-1,1-dicarboxamide]
10 to 100	≤ 10	≤ 10	10 to 100	COc1cc2nccc(Oc3ccc(NC(=O)C4(C(=O)Nc5ccc(F)cc5)CC4)cc3)c2cc1-c1ccncc1 [Compound 202, 1-N′-(4-Fluorophenyl)-1-N-[4-(7-methoxy-6-pyridin-4-ylquinolin-4-yl)oxyphenyl]cyclopropane-1,1-dicarboxamide]
10 to 100	≤ 10	≤ 10	100 to 300	COc1cc2nccc(Oc3ccc(NC(=O)C4(C(=O)Nc5ccc(F)cc5)CC4)cc3)c2cc1C(=O)N1CC(O)C1 [Compound 16, 1-N′-(4-fluorophenyl)-1-N-[4-[6-(3-hydroxyazetidine-1-carbonyl)-7-methoxyquinolin-4-yl]oxyphenyl]cyclopropane-1,1-dicarboxamide]
10 to 100	≤ 10	10 to 100	10 to 100	COc1cc2nccc(Oc3ccc(NC(=O)C4(C(=O)Nc5ccc(F)cc5)CC4)cc3)c2cc1-c1cccc(C#N)c1F [Compound 175, 1-N-[4-[6-(3-cyano-2-fluorophenyl)-7-methoxyquinolin-4-yl]oxyphenyl]-1-N′-(4-fluorophenyl)cyclopropane-1,1-dicarboxamide]
10 to 100	≤ 10	≤ 10	100 to 300	COc1cc2c(Oc3ccc(NC(=O)C4(C(=O)Nc5ccc(F)cc5)CC4)cc3)ccnc2cc1C(N)=O [Compound 152, 1-N-[4-(7-carbamoyl-6-methoxyquinolin-4-yl)oxyphenyl]-1-N′-(4-fluorophenyl)cyclopropane-1,1-dicarboxamide]
≤ 10	≤ 10	≤ 10	≤ 10	CNC(=O)c1ccc2c(Oc3ccc(NC(=O)C4(C(=O)Nc5ccc(F)cc5)CC4)cc3)ccnc2c1 [Compound 165, 1-N′-(4-fluorophenyl)-1-N-[4-[7-(methylcarbamoyl)quinolin-4-yl]oxyphenyl]cyclopropane-1,1-dicarboxamide]
≤ 10	≤ 10	≤ 10	10 to 100	COc1cc2nccc(Oc3ccc(NC(=O)C4(C(=O)Nc5ccc(F)cc5)CC4)cc3)c2cc1-c1cccnc1 [Compound 201, 1-N′-(4-Fluorophenyl)-1-N-[4-(7-methoxy-6-pyridin-3-ylquinolin-4-yl)oxyphenyl]cyclopropane-1,1-dicarboxamide]
10 to 100	≤ 10	10 to 100	10 to 100	COc1cc2nccc(Oc3ccc(NC(=O)C4(C(=O)Nc5ccc(F)cc5)CC4)cc3)c2cc1C#N [Compound 37, 1-N-[4-(6-cyano-7-methoxyquinolin-4-yl)oxyphenyl]-1-N′-(4-fluorophenyl)cyclopropane-1,1-dicarboxamide]
≤ 10	≤ 10	≤ 10	10 to 100	COc1cc2nccc(Oc3ccc(NC(=O)C4(C(=O)Nc5ccc(F)cc5)CC4)cc3)c2cc1S(C)(=O)=O [Compound 210, 1-N′-(4-Fluorophenyl)-1-N-[4-(7-methoxy-6-methylsulfonylquinolin-4-yl)oxyphenyl]cyclopropane-1,1-dicarboxamide]
10 to 100	≤ 10	10 to 100	10 to 100	COc1cc2nccc(Oc3ccc(NC(=O)C4(C(=O)Nc5ccc(F)cc5)CC4)cc3)c2cc1N1CC(F)(F)C1 [Compound 200, 1-N-[4-[6-(3,3-difluoroazetidin-1-yl)-7-methoxyquinolin-4-yl]oxyphenyl]-1-N′-(4-fluorophenyl)cyclopropane-1,1-dicarboxamide]
10 to 100	≤ 10	10 to 100	10 to 100	COc1cc2nccc(Oc3ccc(NC(=O)C4(C(=O)Nc5ccc(F)cc5)CC4)cc3)c2cc1-c1c(C)noc1C [Compound 184, 1-N-[4-[6-(3,5-dimethyl-1,2-oxazol-4-yl)-7-methoxyquinolin-4-yl]oxyphenyl]-1-N′-(4-fluorophenyl)cyclopropane-1,1-dicarboxamide]
10 to 100	10 to 100	10 to 100	100 to 300	CNC(=O)c1ccc2nccc(Oc3ccc(NC(=O)C4(C(=O)Nc5ccc(F)cc5)CC4)cc3)c2c1 [Compound 59, 1-N′-(4-fluorophenyl)-1-N-[4-[6-(methylcarbamoyl)quinolin-4-yl]oxyphenyl]cyclopropane-1,1-dicarboxamide]
